Results reported in patent publication US11339203B2, “Antitumor peptide and use thereof” (TOAGOSEI CO., LTD., priority 2018, dated 2022).
Where two headings read alike, the source gives them in different places. Where no end group is shown, it is not given here.

How the values were obtained:
[1] = system: human kidney cancer cell line (CAKI2); type: cell-based; conditions: human, 48 h
Experimental: The antitumor activity of each sample peptide synthesized in above-mentioned Test Example 1 was evaluated targeted in human-derived cultured tumor cells. More specifically, a human kidney cancer cell line (CAKI2) that is currently commercially available was used for the test tumor cells. CAKI2 cells were cultured and adjusted to cell count of about 5×10^3 cells per single well of 96-well plate. The amount of medium at this time was made to be 100 μL per well. Next, the 96-well plate was arranged in a CO2 incubator and incubated for about 1 day (21 hours to 24 hours) under conditions of 37° C. and 5% CO2. Subsequently, peptide-containing test media were respectively prepared for each concentration so that the concentration of each sample peptide targeted for evaluation was 12.5 μM and 25 μM followed by supplying to the wells in which the cells targeted for evaluation were cultured (namely, the wells following the above-mentioned incubation) so that the amount of media was 90 μL per well. The 96-well plate was then returned to CO2 incubator followed by incubating for 48 hours under conditions of 37° C. and 5% CO2. The number of wells (n) at each concentration in each peptide addition test group was set to 3. Thus, the values of the results indicated in the following table are the average values of the results respectively obtained for 3 test wells. Cell viability (%) was determined in the manner described below. Following completion of incubation for 48 hours as described above, the medium in each well was replaced with 100 μL of fresh medium not containing peptide followed by further adding a reagent for measuring cell proliferation in the form of “Cell Counting Kit-8” (Dojindo Laboratories) containing “water-soluble tetrazolium salt (WST-8)” as a coloring reagent at 10 μL per well. Subsequently, the 96-well plate was again returned to CO2 incubator and incubated for 1.5 hours to 2 hours under conditions of 37° C. and 5% CO2. Following completion of incubation, cell viability (%) was evaluated using a colorimetric method consisting of recovering the cell culture liquid containing the above-mentioned reagent together with measuring absorbance at wavelength of 450 nm based on reduction of tetrazolium salt (value corrected for absorbance at a wavelength of 650 nm: A450 to A650). More specifically, the cell viability (%) of each test cell line was calculated from the measured absorbance as a relative value based on cell viability of 100% for the measured value (measured absorbance) of the comparison test group that underwent incubation for 48 hours as described above in only medium not containing peptide. McCoy's 5A medium (Gibco) containing 2 mM L-glutamine, 3,000 mg/L of glucose, 100 units/mL of penicillin, 100 μg/mL of streptomycin and 10% fetal bovine serum (FBS).

[2] = system: tumor cells; assay: Antitumor activity of the TM2-TAT peptide (data not shown); type: cell-based; conditions: detailed data not shown

Row | Compound | Cell Viability (%) ([1]; 12.5 μM) | Cell Viability (%) ([1]; 25 μM) | antitumor activity [2]
1 | CC[C@H](C)[C@H](NC(=O)[C@H](CCCNC(=N)N)NC(=O)[C@H](CS)NC(=O)[C@H](Cc1ccc(O)cc1)NC(=O)[C@H](CC(C)C)NC(=O)[C@@H](NC(=O)[C@@H](NC(=O)[C@@H](NC(=O)[C@H](CO)NC(=O)[C@H](CC(C)C)NC(=O)[C@H](CC(C)C)NC(=O)[C@H](CC(C)C)NC(=O)[C@H](CC(C)C)NC(=O)[C@@H](NC(=O)[C@H](Cc1ccccc1)NC(=O)[C@@H](NC(=O)[C@@H](NC(=O)[C@@H](NC(=O)[C@H](CS)NC(=O)[C@H](Cc1ccccc1)NC(=O)[C@H](CC(C)C)NC(=O)[C@@H](NC(=O)[C@H](Cc1ccc(O)cc1)NC(=O)[C@H](Cc1c[nH]cn1)NC(=O)[C@H](CCCCN)NC(=O)[C@H](Cc1c[nH]cn1)NC(=O)[C@H](Cc1ccc(O)cc1)NC(=O)[C@@H](N)CC(C)C)[C@@H](C)CC)[C@@H](C)O)[C@@H](C)O)C(C)C)[C@@H](C)O)[C@@H](C)CC)C(C)C)[C@@H](C)CC)C(=O)N[C@@H](CCCCN)C(=O)N[C@@H](CCCCN)C(=O)N[C@@H](CCCNC(=N)N)C(=O)N[C@H](C(=O)N[C@@H](CC(C)C)C(=O)N[C@@H](CCCNC(=N)N)C(=O)N[C@@H](CCCCN)C(=O)N[C@@H](CC(N)=O)C(=O)N[C@@H](CC(=O)O)C(=O)N[C@@H](CCCNC(=N)N)C(=O)N[C@@H](CCCCN)C(=O)N[C@@H](CCCCN)C(=O)N[C@@H](CCCNC(=N)N)C(N)=O)[C@@H](C)O [Sample 5] | 73.3% | 77.6% | –
2 | FLLISACWVISLILGGLPIMGWKKRTLRKNDRKKR-NH2 [Sample 4] | 70.6% | 85.6% | –
3 | LFRAEYFLVLAVLNSGTNPIIKKRTLRKNDRKKR-NH2 [Sample 7] | 98.9% | 66.3% | –
4 | SEQ ID NO: 33: synthetic peptide binding SEQ ID NO: 23 (TAT sequence of HIV) to the C-terminal side of SEQ ID NO: 2 (S1PR1 second TM region) (FIGNLALSDLLAGVAYTANLLLRKKRRQRRR) | – | – | demonstrated antitumor activity
5 | VIIVLSVFIACWAPLFILLLLKKRTLRKNDRKKR-NH2 [Sample 6] | 69.3% | 59.7% | –
6 | WFLREGSMFVALSASVFSLLAIKKRTLRKNDRKKR-NH2 [Sample 3] | 68% | 45.8% | –
